Where a SMILES comes first, the peptide text is derived from it. Where no end group is shown, it is not given here. [ ]: non-standard residue; d: D form. The star is where a group is joined. Sta = CC(C)C[C@H](N)[C@@H](O)CC(=O)O; Nle = CCCC[C@H](N)C(=O)O; Cbz = O=C(OCc1ccccc1)*; Boc = CC(C)(C)OC(=O)*
Columns and labels:
[1] = tested on: HIV-1 IIIB; test: Antiviral cytotoxicity (MTT) assay with MT4 cells, HIV-1 IIIB; assay type: cell-based; conditions: MT-4 cells, 5 days, average of 2 or 3 experiments
[2] = tested on: HIV NL4-3; test: Antiviral cytotoxicity (MTT) assay with MT4 cells, HIV NL4-3; assay type: cell-based, HIV-1; conditions: MT-4 cells, 5 days, average of 2 or 3 experiments
Description: Antiviral potency of the peptides was analyzed against HIV-1 HXB2 or NLA-3 strains using a cytotoxicity assay with MT4 cells as previously described (ref 1-3) with minor modifications. MT-4 cells (1.5×10^4/ml) were exposed to 200 50% tissue culture infective doses (TCID50) of viruses in the presence of various concentrations of test compound in 96 well microtiter plates and incubated at 37° C. for 5 days. Cytotoxicity of HIV was measured by the addition of 3-(4,5-dimethylthiazol-2-yl)-2,5-diphenytetrazolium bromide (MMI) solution to each well to a final concentration of 0.75 mg/ml, and incubation for 1 hour a 37° C. After incubation, cells were dissolved in isopropanoyrriton-X 100/HCl (1000:50:25) solution. Absorbance was monitored in a microplate reader (Spectramax, Molecular Devices) at 540 rm and 690 nm. MT-4 cells were obtained from the AIDS Research and Reference Reagent Program (ARRRP, Division of AIDS, NIAID, NIH: MT-4 from Dr. D. Richman). Cells were propagated in RPMI 1640 growth medium supplemented with 10% fetal bovine serum, 50U of penicillin and 50 μg of streptomycin per ml ([Ivitrogen, Carlsbad Calif.).

[3] = target: T1, Human plasma renin (Homo sapiens, UniProt P00797); conditions: cited from earlier work; for IC50: literature values
T1 construct: plasma renin
T1 sequence (P00797 67-406): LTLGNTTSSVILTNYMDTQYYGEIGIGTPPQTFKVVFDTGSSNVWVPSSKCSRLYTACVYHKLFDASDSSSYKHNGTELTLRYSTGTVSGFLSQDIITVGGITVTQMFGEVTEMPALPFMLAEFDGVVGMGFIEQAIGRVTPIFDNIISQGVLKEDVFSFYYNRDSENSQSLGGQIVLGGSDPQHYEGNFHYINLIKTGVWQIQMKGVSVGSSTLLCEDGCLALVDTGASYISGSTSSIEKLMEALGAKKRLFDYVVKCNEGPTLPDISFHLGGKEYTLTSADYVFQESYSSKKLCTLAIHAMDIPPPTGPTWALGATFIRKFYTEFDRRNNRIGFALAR

Row | Molecule | IC50 [3] [nM] | also measured
1 | CCCC[C@H](NC(=O)[C@H](Cc1c[nH]c2ccccc12)NC(C)=O)C(=O)N[C@@H](CCC(=O)O)C(=O)N[C@@H](Cc1c[nH]c2ccccc12)C(=O)N[C@@H](CC(=O)O)C(=O)N[C@@H](CCCNC(=N)N)C(=O)N[C@@H](CCC(=O)O)C(=O)N[C@@H](CCC(N)=O)C(=O)N[C@@H](CC(N)=O)C(=O)N[C@@H](CC(N)=O)C(=O)N[C@@H](Cc1ccc(O)cc1)C(=O)N[C@H](C(=O)N[C@@H](CO)C(=O)N[C@@H](CC(C)C)C(=O)N[C@H](C(=O)N[C@@H](Cc1c[nH]cn1)C(=O)N[C@@H](CO)C(=O)N[C@@H](CC(C)C)C(=O)N[C@H](C(=O)N[C@@H](CCC(=O)O)C(=O)N[C@@H](CCC(=O)O)C(=O)N[C@@H](CO)C(=O)N[C@@H](CCC(N)=O)C(=O)N[C@@H](CC(N)=O)C(=O)N[C@@H](CCC(N)=O)C(=O)N[C@@H](CCC(N)=O)C(=O)N[C@@H](CCC(=O)O)C(=O)N[C@@H](CCCCN)C(=O)N[C@@H](CC(N)=O)C(=O)N[C@@H](CCC(=O)O)C(=O)N[C@@H](CCC(N)=O)C(=O)N[C@@H](CCC(=O)O)C(=O)N[C@@H](CC(C)C)C(=O)N[C@@H](CC(C)C)C(N)=O)[C@@H](C)CC)[C@@H](C)CC)[C@@H](C)O [peptide 2, Ac-WXEWDREQNNYTSLIHSLIEESQNQQEKNEQELL-NH2] (Ac-W[Nle]EWDREQNNYTSLIHSLIEESQNQQEKNEQELL-NH2) | – | IC50 [1]: 2.4 nM; IC50 [2]: 18 nM
2 | CCCC[C@H](NC(=O)[C@H](Cc1c[nH]c2ccccc12)NC(C)=O)C(=O)N[C@@H](CCC(=O)O)C(=O)N[C@@H](Cc1c[nH]c2ccccc12)C(=O)N[C@@H](CC(=O)O)C(=O)N[C@@H](CCCNC(=N)N)C(=O)N[C@@H](CCC(=O)O)C(=O)N[C@@H](Cc1c[nH]c2ccccc12)C(=O)N[C@@H](CC(N)=O)C(=O)N[C@@H](CC(N)=O)C(=O)N[C@@H](Cc1ccc(O)cc1)C(=O)N[C@H](C(=O)N[C@@H](CO)C(=O)N[C@@H](CC(C)C)C(=O)N[C@H](C(=O)N[C@@H](Cc1c[nH]cn1)C(=O)N[C@@H](CO)C(=O)N[C@@H](CC(C)C)C(=O)N[C@H](C(=O)N[C@@H](CCC(=O)O)C(=O)N[C@@H](CCC(=O)O)C(=O)N[C@@H](CO)C(=O)N[C@@H](CCC(N)=O)C(=O)N[C@@H](CC(N)=O)C(=O)N[C@@H](CCC(N)=O)C(=O)N[C@@H](CCC(N)=O)C(=O)N[C@@H](CCC(=O)O)C(=O)N[C@@H](CCCCN)C(=O)N[C@@H](CC(N)=O)C(=O)N[C@@H](CCC(=O)O)C(=O)N[C@@H](CCC(N)=O)C(=O)N[C@@H](CCC(=O)O)C(=O)N[C@@H](CC(C)C)C(=O)N[C@@H](CC(C)C)C(N)=O)[C@@H](C)CC)[C@@H](C)CC)[C@@H](C)O [peptide 3, Ac-WXEWDREWNNYTSLIHSLIEESQNQQEKNEQELL-NH2] (Ac-W[Nle]EWDREWNNYTSLIHSLIEESQNQQEKNEQELL-NH2) | – | IC50 [1]: 1.7 nM; IC50 [2]: 7.6 nM
3 | CCCC[C@H](NC(=O)[C@H](Cc1c[nH]c2ccccc12)NC(C)=O)C(=O)N[C@@H](CCC(=O)O)C(=O)N[C@@H](Cc1c[nH]c2ccccc12)C(=O)N[C@@H](CC(=O)O)C(=O)N[C@@H](CCCNC(=N)N)C(=O)N[C@@H](CCC(=O)O)C(=O)N[C@H](C(=O)N[C@@H](CC(N)=O)C(=O)N[C@@H](CC(N)=O)C(=O)N[C@@H](Cc1ccc(O)cc1)C(=O)N[C@H](C(=O)N[C@@H](CO)C(=O)N[C@@H](CC(C)C)C(=O)N[C@H](C(=O)N[C@@H](Cc1c[nH]cn1)C(=O)N[C@@H](CO)C(=O)N[C@@H](CCC(N)=O)C(=O)N[C@H](C(=O)N[C@@H](CCC(=O)O)C(=O)N[C@@H](CCC(=O)O)C(=O)N[C@@H](CO)C(=O)N[C@@H](CCC(N)=O)C(=O)N[C@@H](CC(N)=O)C(=O)N[C@@H](CCC(N)=O)C(=O)N[C@@H](CCC(N)=O)C(=O)N[C@@H](CCC(=O)O)C(=O)N[C@@H](CCCCN)C(=O)N[C@@H](CC(N)=O)C(=O)N[C@@H](CCC(=O)O)C(=O)N[C@@H](CCC(N)=O)C(=O)N[C@@H](CCC(=O)O)C(=O)N[C@@H](CC(C)C)C(=O)N[C@@H](CC(C)C)C(N)=O)[C@@H](C)CC)[C@@H](C)CC)[C@@H](C)O)[C@@H](C)CC [peptide 5, Ac-WXEWDREINNYTSLIHSQIEESQNQQEKNEQELL-NH2] (Ac-W[Nle]EWDREINNYTSLIHSQIEESQNQQEKNEQELL-NH2) | – | IC50 [1]: 6.6 nM; IC50 [2]: 200 nM
4 | CCCC[C@H](NC(=O)[C@H](Cc1c[nH]c2ccccc12)NC(C)=O)C(=O)N[C@@H](CCC(=O)O)C(=O)N[C@@H](Cc1c[nH]c2ccccc12)C(=O)N[C@@H](CC(=O)O)C(=O)N[C@@H](CCCNC(=N)N)C(=O)N[C@@H](CCCCN)C(=O)N[C@H](C(=O)N[C@@H](CCC(=O)O)C(=O)N[C@@H](CCC(=O)O)C(=O)N[C@@H](Cc1ccc(O)cc1)C(=O)N[C@H](C(=O)N[C@@H](CCCCN)C(=O)N[C@@H](CCCCN)C(=O)N[C@H](C(=O)N[C@@H](CCCCN)C(=O)N[C@@H](CCCCN)C(=O)N[C@@H](CC(C)C)C(=O)N[C@H](C(=O)N[C@@H](CCC(=O)O)C(=O)N[C@@H](CCC(=O)O)C(=O)N[C@@H](CO)C(=O)N[C@@H](CCC(N)=O)C(=O)N[C@@H](CCC(=O)O)C(=O)N[C@@H](CCC(N)=O)C(=O)N[C@@H](CCC(N)=O)C(=O)N[C@@H](CCC(=O)O)C(=O)N[C@@H](CCCCN)C(=O)N[C@@H](CC(N)=O)C(=O)N[C@@H](CCC(=O)O)C(=O)N[C@@H](CCCCN)C(=O)N[C@@H](CCC(=O)O)C(=O)N[C@@H](CC(C)C)C(=O)N[C@@H](CCCCN)C(N)=O)[C@@H](C)CC)[C@@H](C)CC)[C@@H](C)O)[C@@H](C)CC [peptide 6, Ac-WXEWDRKIEEYTKKIKKLIEESQEQQEKNEKELK-NH2] (Ac-W[Nle]EWDRKIEEYTKKIKKLIEESQEQQEKNEKELK-NH2) | – | IC50 [1]: 2.4 nM; IC50 [2]: 1.2 nM
5 | CCCC[C@H](NC(=O)[C@H](Cc1c[nH]c2ccccc12)NC(C)=O)C(=O)N[C@@H](CCC(=O)O)C(=O)N[C@@H](Cc1c[nH]c2ccccc12)C(=O)N[C@@H](CC(=O)O)C(=O)N[C@@H](CCCNC(=N)N)C(=O)N[C@@H](CCCCN)C(=O)N[C@H](C(=O)N[C@@H](CCC(=O)O)C(=O)N[C@@H](CCC(=O)O)C(=O)N[C@@H](Cc1ccc(O)cc1)C(=O)N[C@H](C(=O)N[C@@H](CCCCN)C(=O)N[C@@H](CCCCN)C(=O)N[C@H](C(=O)N[C@@H](CCCCN)C(=O)N[C@@H](CCCCN)C(=O)N[C@@H](CC(C)C)C(=O)N[C@H](C(=O)N[C@@H](CCC(=O)O)C(=O)N[C@@H](CCC(=O)O)C(=O)N[C@@H](CO)C(=O)N[C@@H](CCC(N)=O)C(=O)N[C@@H](CCC(=O)O)C(=O)N[C@@H](CC(C)C)C(=O)N[C@@H](CCC(N)=O)C(=O)N[C@@H](CCC(=O)O)C(=O)N[C@@H](CCCCN)C(=O)N[C@@H](CC(N)=O)C(=O)N[C@@H](CCC(=O)O)C(=O)N[C@@H](CCCCN)C(=O)N[C@@H](CCC(=O)O)C(=O)N[C@@H](CC(C)C)C(=O)N[C@@H](CCCCN)C(N)=O)[C@@H](C)CC)[C@@H](C)CC)[C@@H](C)O)[C@@H](C)CC [peptide 7, Ac-WXEWDRKIEEYTKKIKKLIEESQELQEKNEKELK-NH2] (Ac-W[Nle]EWDRKIEEYTKKIKKLIEESQELQEKNEKELK-NH2) | – | IC50 [1]: 2.4 nM; IC50 [2]: 1.1 nM
6 | Ac-(HCO-Trp)-Pro-Phe-His-Sta---Ile-NH2 | 0.1 | –
7 | Ac-HPFV[Sta]LF-NH2 | 32 | –
8 | Ac-His-Pro-Phe-His-ACHPA---Leu-Phe-NH2 | 0.5 | –
9 | Ac-WPFH[Sta]I-NH2 | 16 | –
10 | Boc-FH[Sta]A[Sta]-OMe | 27 | –
11 | Boc-His-Pro-Phe-His-Leu(CH(OH)CH2)Val-Ile-His-OH | 0.7 | –
12 | Boc-Phe-His-ACHPA---Leu-AMB | 1 | –
13 | Boc-Phe-His-Cha-(CH2NH)Val-NH-2(S)-Me(Bu) | 86 | –
14 | Boc-Phe-His-Sta---Ile-AMP | 6 | –
15 | Boc-Phe-His-Sta---Leu-AMB | 9 | –
16 | Boc-Phe-His-Sta---Leu-NHCH2Ph | 26 | –
17 | Boc-Pro-Phe-His-Sta---Ile-AMP | 4.1 | –
18 | Cbz-RRPFH[Sta]IHK(Boc)-OMe | 1 | –
19 | Iva-His-Pro-Phe-His-Sta---Ala-Sta | – | Ki ([3]; cell marked (Ki)): 1.9 nM
20 | Iva-Phe-Nle-Sta-Ala-Sta | 28 | –
21 | PEC-Phe-His-ACHPA-ILeNHC(CH2OH)2CH3 | < 0.01 | –
22 | PHPFH[Sta]IF-NH2 | 3 | –
23 | PHPFH[Sta]IH[dK] | 26 | –
24 | Pro-His-Pro-Phe-His-Leu(CH2NH)Val-Ile-His-Lys | 10 | –

From US20070207952A1, “Long Acting Biologically Active Conjugates” (priority 2003, published 2007)
